Tests used:
barnyardgrass [1] = assay: Test C preemergence; type: in vivo, Echinochloa crusgalli; conditions: 0 to 100 scale (0 no effect, 100 complete control)
In short: (§1)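 Visual injury score, 0–100 (100 = complete control), taken 10 days after treatment relative to untreated controls. Pre: directed spray onto soil over sown seeds. Post: foliar spray at one- to two-leaf stage, 2–10 cm. Solvent/surfactant formulation; loam–sand soil; greenhouse.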

blackgrass [2] = assay: Test C preemergence; type: in vivo, Alopecurus myosuroides; conditions: 0 to 100 scale (0 no effect, 100 complete control)
In short: as §1

corn [3] = assay: Test C preemergence; type: in vivo, Zea mays; conditions: 0 to 100 scale (0 no effect, 100 complete control)
In short: as §1

green foxtail [4] = assay: Test C preemergence; type: in vivo, Setaria viridis; conditions: 0 to 100 scale (0 no effect, 100 complete control)
In short: as §1

kochia [5] = assay: Test C preemergence; type: in vivo, Bassia scoparia; conditions: 0 to 100 scale (0 no effect, 100 complete control)
In short: as §1

oat, wild [6] = assay: Test C preemergence; type: in vivo, Avena fatua; conditions: 0 to 100 scale (0 no effect, 100 complete control)
In short: as §1

pigweed, palmer [7] = assay: Test C preemergence; type: in vivo, Amaranthus palmeri; conditions: 0 to 100 scale (0 no effect, 100 complete control)
In short: as §1

ragweed [8] = assay: Test C preemergence; type: in vivo, Ambrosia artemisiifolia; conditions: 0 to 100 scale (0 no effect, 100 complete control)
In short: as §1

ryegrass, Italian [9] = assay: Test C preemergence; type: in vivo, Lolium multiflorum; conditions: 0 to 100 scale (0 no effect, 100 complete control)
In short: as §1

soybean [10] = assay: Test C preemergence; type: in vivo, Glycine max; conditions: 0 to 100 scale (0 no effect, 100 complete control)
In short: as §1

wheat [11] = assay: Test C preemergence; type: in vivo, Triticum aestivum; conditions: 0 to 100 scale (0 no effect, 100 complete control)
In short: as §1

barnyardgrass [12] = assay: Test C postemergence; type: in vivo, Echinochloa crusgalli; conditions: 10 days
In short: as §1

blackgrass [13] = assay: Test C postemergence; type: in vivo, Alopecurus myosuroides; conditions: 10 days
In short: as §1

corn [14] = assay: Test C postemergence; type: in vivo, Zea mays; conditions: 10 days
In short: as §1

green foxtail [15] = assay: Test C postemergence; type: in vivo, Setaria viridis; conditions: 10 days
In short: as §1

kochia [16] = assay: Test C postemergence; type: in vivo, Bassia scoparia; conditions: 10 days
In short: as §1

oat, wild [17] = assay: Test C postemergence; type: in vivo, Avena fatua; conditions: 10 days
In short: as §1

pigweed, palmer [18] = assay: Test C postemergence; type: in vivo, Amaranthus palmeri; conditions: 10 days
In short: as §1

ragweed [19] = assay: Test C postemergence; type: in vivo, Ambrosia artemisiifolia; conditions: 10 days
In short: as §1

ryegrass, Italian [20] = assay: Test C postemergence; type: in vivo, Lolium multiflorum; conditions: 10 days
In short: as §1

soybean [21] = assay: Test C postemergence; type: in vivo, Glycine max; conditions: 10 days
In short: as §1

wheat [22] = assay: Test C postemergence; type: in vivo, Triticum aestivum; conditions: 10 days
In short: as §1

galium = assay: Test C postemergence; type: in vivo, Galium aparine; conditions: 10 days
In short: as §1

horseweed = assay: Test C postemergence; type: in vivo, Erigeron canadensis; conditions: 10 days
In short: as §1

barnyardgrass [23] = assay: Test D flooded paddy test; type: in vivo, Echinochloa crus-galli; conditions: 250 g ai/ha, applied to paddy water, visual rating after 13 to 14 days, scale 0 to 100 (0 no effect, 100 complete control)
In short: (§2)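 Seedlings reached the 2-leaf stage, then pots were flooded to 3 cm over the soil surface. Compound was applied into the water, depth was maintained, and plants stayed in the greenhouse 13 to 14 days before visual scoring (0–100) relative to controls.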

ducksalad = assay: Test D flooded paddy test; type: in vivo, Heteranthera limosa; conditions: 250 g ai/ha, applied to paddy water, visual rating after 13 to 14 days, scale 0 to 100 (0 no effect, 100 complete control)
In short: as §2

rice = assay: Test D flooded paddy test; type: in vivo, Oryza sativa; conditions: 250 g ai/ha, applied to paddy water, visual rating after 13 to 14 days, scale 0 to 100 (0 no effect, 100 complete control)
In short: as §2

sedge, umbrella = assay: Test D flooded paddy test; type: in vivo, Cyperus difformis; conditions: 250 g ai/ha, applied to paddy water, visual rating after 13 to 14 days, scale 0 to 100 (0 no effect, 100 complete control)
In short: as §2

[24] = Preemergence, 500 g ai/ha, visual rating after 10 days
[25] = Test C, preemergence, 125 g ai/ha
[26] = 125 g ai/ha, postemergence, 0 to 100 scale, 0 no effect, 100 complete control
[27] = Postemergence, 500 g ai/ha, visual 0 to 100 scale (0 no effect, 100 complete control)

CCc1c(F)cc(-n2cnc(C(C)C)n2)cc1C(=O)N1C[C@H](C)Oc2c(Cl)cccc21 [Compound 152]
Barnyardgrass plant response rating (barnyardgrass [1]; 125 g ai/ha, preemergence): 70 | Plant response rating, Barnyardgrass (barnyardgrass [1]; [24]): 90 | Plant response rating, Blackgrass (blackgrass [2]; [24]): 60 | Blackgrass plant response rating (blackgrass [2]; [25]): 50 | Plant response rating, Corn (corn [3]; [24]): 50 | Corn plant response rating (corn [3]; [25]): 30 | Plant response rating, Foxtail, Green (green foxtail [4]; [24]): 100 | Foxtail, Green plant response rating (green foxtail [4]; [25]): 100 | Plant response rating, Kochia (kochia [5]; [24]): 90 | Kochia plant response rating (kochia [5]; [25]): 40 | Plant response rating, Oat, Wild (oat, wild [6]; [24]): 70 | Oat, Wild plant response rating (oat, wild [6]; [25]): 60 | Plant response rating, Pigweed, Palmer (pigweed, palmer [7]; [24]): 90 | Pigweed, Palmer plant response rating (pigweed, palmer [7]; [25]): 90 | Plant response rating, Ragweed (ragweed [8]; [24]): 0 | Ragweed plant response rating (ragweed [8]; [25]): 0 | Plant response rating, Ryegrass, Italian (ryegrass, Italian [9]; [24]): 90 | Ryegrass, Italian plant response rating (ryegrass, Italian [9]; [25]): 70 | Plant response rating, Soybean (soybean [10]; [24]): 70 | Soybean plant response rating (soybean [10]; [25]): 50 | Plant response rating, Wheat (wheat [11]; [24]): 40 | Wheat plant response rating (wheat [11]; [25]): 20 | Plant response rating, Barnyardgrass (barnyardgrass [12]; [26]): 60 | Plant response rating, Barnyardgrass (barnyardgrass [12]; [27]): 90 | Plant response rating, Blackgrass (blackgrass [13]; [26]): 50 | Plant response rating, Blackgrass (blackgrass [13]; [27]): 70 | Plant response rating, Corn (corn [14]; [26]): 40 | Plant response rating, Corn (corn [14]; [27]): 70 | Plant response rating, Foxtail, Green (green foxtail [15]; [26]): 40 | Plant response rating, Foxtail, Green (green foxtail [15]; [27]): 90 | Plant response rating, Kochia (kochia [16]; [26]): 80 | Plant response rating, Kochia (kochia [16]; [27]): 80 | Plant response rating, Oat, Wild (oat, wild [17]; [26]): 0 | Plant response rating, Oat, Wild (oat, wild [17]; [27]): 30 | Plant response rating, Pigweed, Palmer (pigweed, palmer [18]; [26]): 80 | Plant response rating, Pigweed, Palmer (pigweed, palmer [18]; [27]): 90 | Plant response rating, Ragweed (ragweed [19]; [26]): 40 | Plant response rating, Ragweed (ragweed [19]; [27]): 60 | Plant response rating, Ryegrass, Italian (ryegrass, Italian [20]; [26]): 30 | Plant response rating, Ryegrass, Italian (ryegrass, Italian [20]; [27]): 60 | Plant response rating, Soybean (soybean [21]; [26]): 100 | Plant response rating, Soybean (soybean [21]; [27]): 100 | Plant response rating, Wheat (wheat [22]; [26]): 20 | Plant response rating, Wheat (wheat [22]; [27]): 20 | Plant response rating, Galium (galium; [26]): 100 | Plant response rating, Galium (galium; [27]): 100 | Plant response rating, Horseweed (horseweed; [26]): 0 | Plant response rating, Horseweed (horseweed; [27]): 0 | Plant response rating, Barnyardgrass (Flood) (barnyardgrass [23]): 0 | Plant response rating, Ducksalad (Flood) (ducksalad): 0 | Plant response rating, Rice (Flood) (rice): 0 | Plant response rating, Sedge, Umbrella (Flood) (sedge, umbrella): 0

From patent US20260262643A1, “HERBICIDAL BENZOXAZINES” (FMC CORPORATION, priority 2022, published 2026)
